Laboratory results published in US20060216699A1, “Peptides for the detection of HIV-1 group O” (priority 1998, published 2006).

Tests used:
[1] = system: anti-HIV-1 group O antibodies present in human serum; test: ELISA: biotinylated peptide bound to streptavidin-coated wells, HIV-1 group O sera, anti-IgG:HRP, OPD, absorbance at 492 nm; type: binding
Method: Serological recognition of the peptide by HIV-1 group O sera. Peptide 147 was evaluated for its ability to be recognized by anti-HIV-1 group O antibodies present in human serum from infected individuals. All group O samples were confirmed to be positive for HIV-1 group O by reverse transcriptase-polymerase chain reaction (RT-PCR) amplification of viral gp41 sequences using O-specific primers. The identity of the PCR product was further confirmed by DNA sequencing.
This technique involves binding of the antigen to a solid phase, bringing the fluid to be tested into contact with the antigen-coated solid phase, washing away any unbound material, and then detecting bound antibodies with an enzyme-labeled second antibody. The presence of the enzyme is detected using a chromogenic or luminogenic substrate.
To evaluate biotinylated peptide 147, wells of a microtiter plate were coated with streptavidin at a concentration of 1 μg/ml in 50 mM carbonate buffer, pH 9.6 (200 μl/well). Excess unbound streptavidin was removed by washing several times with phosphate buffered saline (PBS). Biotinylated peptide 147 was dissolved in a minimal volume of pure DMSO and then diluted into PBS to a concentration of 0.5 μg/ml. Two hundred microliters of the peptide solution were added to each well and the peptide allowed to bind to the streptavidin. After removing unbound peptide by washing with PBS, serum samples obtained from HIV-1 group O-infected patients were added to the wells of the plate. After a suitable incubation period, unbound material was removed by washing with PBS. A dilution of an anti-IgG:horse radish peroxidase (HRP) conjugate was added to each well and incubated for 30 minutes at 37° C. Unbound material was removed by extensive washing. Substrate solution containing O-phenylenediamine (OPD) and H2O2 was added to each well and the plate was further incubated, protected from light. After a 30 minute incubation period at room temperature, the reaction was terminated by the addition of 50 μl of 4N H2SO4 and the absorbance of each well was read at 492 nm.
Peptide 147 was first tested by using undiluted (10 μl) serum samples. The sample measurements are in optical density (OD).
A panel of serially diluted group O sera was tested with peptide 147 in order to evaluate the sensitivity of an ELISA using this antigen. Streptavidin-coated plates were prepared and loaded with peptide 147 as before, and tested using the dilutional panels. In addition, in order to compare the performance of […] peptide 147 with that of a genuine group O sequence, a second peptide was synthesized (peptide 146) corresponding to the sequence of the DUR variant.
These peptides cover precisely the same region of gp41, and were tested in parallel.

[2] = system: type B sample; test: ELISA: biotinylated peptide bound to streptavidin-coated wells, type B sample; type: binding, human; settings: undiluted
[3] = system: antibodies to HIV-1 group O; test: Chemiluminescent ELISA: serially diluted peptide on streptavidin-coated wells, serum ODS007b 1:60, anti-human IgG:HRP, luminol; type: binding; settings: for luminescent units: serum ODS007b 1:60
Method: To compare the performance of peptide 147 to another genuine group O sequence, the peptide corresponding to the ANT70 sequence was synthesized (peptide 80). Peptides 147 and 80 were dissolved at the same concentration, serially diluted, and bound to streptavidin-coated wells. A 1:60 dilution of serum sample ODS007b (see Table 3) was added to all wells and incubated. After washing, an anti-human IgG:HRP conjugate was added, incubated, and the wells again thoroughly washed. In this case, a chemiluminescent substrate was used, consisting of luminol and a peracid salt. The emitted light was quantified using a luminometer. The results are tabulated in Table 4 and shown graphically in FIG. 2.

## NQQRLNSWGCKGRIICYTSARWH (HIV Consensus) [peptide 147]
[1]; a number of the dilutional panels, in words
  performance compared with a genuine group O sequence (peptide 146): equaled or significantly exceeded that of a genuine group O sequence
[1]; highly diluted samples, in words
  binding of antibodies against the group O gp41 immunodominant region: suitable antigen capable of binding antibodies against the group O gp41 immunodominant region
[1]; negative control (uninfected blood donor), undiluted sample (10 μl)
  OD492: 0.056 OD
[1]; panel OP1, sample OP1A, dilution of original sample 2
  OD492: 2.500 OD
[1]; panel OP1, sample OP1B, dilution of original sample 4
  OD492: 2.298 OD
[1]; panel OP1, sample OP1C, dilution of original sample 8
  OD492: 2.465 OD
[1]; panel OP1, sample OP1D, dilution of original sample 16
  OD492: 2.387 OD
[1]; panel OP1, sample OP1E, dilution of original sample 32
  OD492: 2.013 OD
[1]; panel OP1, sample OP1F, dilution of original sample 64
  OD492: 1.448 OD
[1]; panel OP1, sample OP1G, dilution of original sample 128
  OD492: 1.150 OD
[1]; panel OP1, sample OP1H, dilution of original sample 256
  OD492: 0.927 OD
[1]; panel OP1, sample OP1I, dilution of original sample 512
  OD492: 0.504 OD
[1]; panel OP1, sample OP1J, dilution of original sample 1024
  OD492: 0.053 OD
[1]; panel OP2, sample OP2A, dilution of original sample 5
  OD492: 2.236 OD
[1]; panel OP2, sample OP2B, dilution of original sample 10
  OD492: 2.320 OD
[1]; panel OP2, sample OP2C, dilution of original sample 20
  OD492: 2.157 OD
[1]; panel OP2, sample OP2D, dilution of original sample 40
  OD492: 1.844 OD
[1]; panel OP2, sample OP2E, dilution of original sample 80
  OD492: 1.061 OD
[1]; panel OP2, sample OP2F, dilution of original sample 160
  OD492: 0.689 OD
[1]; panel OP2, sample OP2G, dilution of original sample 320
  OD492: 0.327 OD
[1]; panel OP2, sample OP2H, dilution of original sample 640
  OD492: 0.184 OD
[1]; panel OP2, sample OP2I, dilution of original sample 1280
  OD492: 0.179 OD
[1]; panel OP2, sample OP2J, dilution of original sample 2560
  OD492: 0.090 OD
[1]; panel OP3, sample OP3A, dilution of original sample 300
  OD492: 0.229 OD
[1]; panel OP3, sample OP3B, dilution of original sample 600
  OD492: 0.373 OD
[1]; panel OP3, sample OP3C, dilution of original sample 1200
  OD492: 0.211 OD
[1]; panel OP4, sample OP4A, dilution of original sample 100
  OD492: 0.774 OD
[1]; panel OP4, sample OP4B, dilution of original sample 200
  OD492: 0.608 OD
[1]; panel OP4, sample OP4C, dilution of original sample 400
  OD492: 0.398 OD
[1]; panel OP4, sample OP4D, dilution of original sample 800
  OD492: 0.277 OD
[1]; panel OP4, sample OP4E, dilution of original sample 1600
  OD492: 0.040 OD
[1]; panel OP5, sample OP5A, dilution of original sample 100
  OD492: 1.624 OD
[1]; panel OP5, sample OP5B, dilution of original sample 200
  OD492: 1.027 OD
[1]; panel OP5, sample OP5C, dilution of original sample 400
  OD492: 0.225 OD
[1]; panel OP5, sample OP5D, dilution of original sample 800
  OD492: 0.302 OD
[1]; panel OP6, sample OP6A, dilution of original sample 50
  OD492: 0.667 OD
[1]; panel OP7-2, sample OP7-2A, dilution of original sample 100
  OD492: 2.081 OD
[1]; panel OP7-2, sample OP7-2B, dilution of original sample 200
  OD492: 1.817 OD
[1]; panel OP7-2, sample OP7-2C, dilution of original sample 400
  OD492: 1.346 OD
[1]; panel OP7-2, sample OP7-2D, dilution of original sample 800
  OD492: 0.847 OD
[1]; sample ODS001, undiluted
  OD492: 2.500 OD
[1]; sample ODS002, undiluted
  OD492: 2.500 OD
[1]; sample ODS003, undiluted
  OD492: 2.500 OD
[1]; sample ODS004, undiluted
  OD492: 2.500 OD
[1]; sample ODS006, undiluted
  OD492: 2.500 OD
[1]; sample ODS007a, undiluted
  OD492: 2.500 OD
[1]; sample ODS007b, undiluted
  OD492: 2.500 OD
[1]; sample ODS009, undiluted
  OD492: 2.500 OD
[1]; undiluted specimens, in words
  recognition by antibodies produced in response to an HIV-1 group O infection: capable of recognizing peptide 147
[2]
  OD492: 1.926 OD
[3]; in words
  detection of antibodies to HIV-1 group O compared with a naturally occurring isolate (peptide 80): comparable to that of a naturally occurring isolate
[3]; peptide 0.020 ug/ml
  luminescent units: 0.619 luminescent units
[3]; peptide 0.039 ug/ml
  luminescent units: 0.504 luminescent units
[3]; peptide 0.078 ug/ml
  luminescent units: 0.740 luminescent units
[3]; peptide 0.156 ug/ml
  luminescent units: 1.199 luminescent units
[3]; peptide 0.313 ug/ml
  luminescent units: 2.090 luminescent units
[3]; peptide 0.625 ug/ml
  luminescent units: 3.093 luminescent units
[3]; peptide 1.250 ug/ml
  luminescent units: 2.885 luminescent units
[3]; peptide 2.500 ug/ml
  luminescent units: 2.374 luminescent units
